This note sets out measurements from patent publication US5521167A, “Cyclopentanperhydrophenanthren-17β-(hydroxy or alkoxy)-17α-(Aryl or heterocyclyl)-3β-derivatives active on the cardiovascular system, and pharmaceutical compositions containing same” (Sigma-Tau Industrie Farmceutiche Riunite S.p.A., priority 1992, dated 1996).

Experiment [1] relates to hypertensive MHS rats. The experiment can be described thus: systolic blood pressure and heart rate in hypertensive MHS rats (indirect tail-cuff, ten-day oral treatment). The class given is in vivo, rat. The note with it: 20 mg/Kg/os daily for ten days, in METHOCEL 0.5% w/v, 7 rats; for SYSTOLIC BLOOD PRESSURE FALL IN SPONTANEOUS HYPERTENSIVE RATS (MHS), SBP: controls 171 +/- 4.5; for HR: controls 384 +/- 11.0. From the text: (§1) To test the affinity for the receptor site of the Na^+,K^+ -ATPase and the agonist or antagonist activity on the enzyme, the following tests were used: a) displacement of the specific ^3 H-ouabain binding from the Na^+,K^+ -ATPase receptor purified according to Jorghensen (Jorghensen P., BBA, 1974, 356, 36) and Erdmann ( Erdmann E. et al., Arzneim. Forsh., 1984, 34, 1314); b) inhibition of the activity of the purified Na^+,K^+ -ATPase measured as % of hydrolysis of ^32 P-ATP in presence and in absence of the tested compound (Doucet A. et al., Am. J. Physiol., 1986, 251, F851). The ability of these compounds to lower blood pressure in adult hypertensive MHS rats was tested according to the following scheme: systolic blood pressure (SBP) and heart rate (HR) were measured by an indirect tail-cuff method in three-month old hypertensive MHS rats before starting with the treatment (basal values). The rats were then subdivided in two groups of 7 animals each, one receiving the compound and the other, the control group, receiving only the vehicle. The compound was orally daily given, suspended in Methocel 0.5% (w/v), for ten days. SBP and HR were measured daily 6 and 24 hours after the treatment.
After ten-day treatment, washout was started for at least two days, to verify whether the treatment maintained SBP low or reestablished the basal values.

The target in experiment [2] is T1, Na^+,K^+ -ATPase (Canis lupus familiaris, UniProt P50997).
T1 construct: Na^+,K^+ -ATPase receptor purified according to Jorghensen; from tissue
Nature of the experiment: inhibition of the activity of the purified Na^+,K^+ -ATPase measured as % of hydrolysis of ^32 P-ATP. The class given is biochemical.
Description: as §1

The target in experiment [3] is T1, Na^+,K^+ -ATPase. Nature of the experiment: displacement of the specific ^3 H-ouabain binding from the purified Na^+,K^+ -ATPase receptor.
Description: as §1

Setting [4] is: ^3 H-ouabain displacement, purified Na^+,K^+ -ATPase, read-out: Binding ^3 H-Ouab. Displacement log IC50 (converted).
Where [5] appears, read: hydrolysis of ^32 P-ATP, purified Na^+,K^+ -ATPase, read-out: Inhibitory Activity log IC50 (converted).

Structures are written as SMILES.

Take `C[C@]12CC[C@H](OCCOCCN3CCCC3)C=C1CC[C@@H]1[C@@H]2CC[C@@]2(C)[C@H]1CC[C@@]2(OCCN)c1ccoc1` [Comp. I-aq, 3β-(2-(2-(1-Pyrrolidinyl)ethoxy)ethoxy)-17α-(2-aminoethoxy)-17α-(3-furyl)-androst-4-ene]: in experiment [1], the “SYSTOLIC BLOOD PRESSURE FALL IN SPONTANEOUS HYPERTENSIVE RATS (MHS), SBP” value is given as 148 +/- 3.2 mm Hg and the HR was 388 +/- 12.0 beats/min. In addition, in experiment [2], the half-inhibitory concentration (IC50) was 2510 nM. The IC50 in experiment [3] (setting [4]) was 316 nM.

`C[C@]12CC[C@H](OCCN3CCCC3)C[C@H]1CC[C@@H]1[C@@H]2CC[C@@]2(C)[C@H]1CC[C@@]2(OCCN1CCCC1)c1ccoc1` [Comp. I-ad, 3β17β-Bis(2-(1-pyrrolidinyl)ethoxy)-17α-(3-furyl)-5β-androstane]: the IC50 in experiment [2] is 3160 nM; in experiment [3] (setting [4]), 398 nM.

As for `C[C@]12CC[C@H](OCCCN)C[C@@H]1CC[C@@H]1[C@@H]2CC[C@@]2(C)[C@H]1CC[C@@]2(O)c1ccoc1` [Comp. I-ai, 3β-(3-Aminopropoxy)-17α-(3-furyl)-androstan-17β-ol], the 50% inhibitory concentration (IC50) in experiment [2] (setting [5]) was 1580 nM; in experiment [3], 251 nM.

Turning to `C[C@]12CC[C@H](OCCOCCN3CCCC3)CC1=CC[C@@H]1[C@@H]2CC[C@@]2(C)[C@H]1CC[C@@]2(OCCN1CCCC1)c1ccoc1` [Comp. I-ay, 3β-(2-(2-(1-pyrrolidinyl)ethoxy)ethoxy)-17β-(2-(1-pyrrolidinyl)ethoxy)-17α-(3furyl)-androst-5-ene], in experiment [1], the “SYSTOLIC BLOOD PRESSURE FALL IN SPONTANEOUS HYPERTENSIVE RATS (MHS), SBP” value was 149 +/- 4.8 mm Hg and the HR is recorded as 395 +/- 10.0 beats/min. Also, the IC50 in experiment [2] (setting [5]) was 1580 nM. In experiment [3] (setting [4]), the half-inhibitory concentration (IC50) was 398 nM.

Consider `C[C@]12CC[C@H](OCCOCCN3CCCC3)C[C@@H]1CC[C@@H]1[C@@H]2CC[C@@]2(C)[C@H]1CC[C@@]2(O)c1ccoc1` [Comp. I-al, 3β-(2-(2(1-Pyrrolidinyl)ethoxyy)ethoxy)-17α-(3-furyl)-androstan-17β-ol], for which the IC50 in experiment [2] (setting [5]) is 1580 nM; in experiment [3] (setting [4]), 501 nM.

In the case of `C[C@]12CC[C@H](OCCOCCN3CCCC3)C[C@@H]1CC[C@@H]1[C@@H]2CC[C@@]2(C)[C@H]1CC[C@@]2(OCCN)c1ccoc1` [Comp. I-am, 3β-(2-(2-(1-Pyrrolidinyl)ethoxy)ethoxy)-17β-(2-aminoethoxy)-17α-(3-furyl)-androstane], in experiment [1], the “SYSTOLIC BLOOD PRESSURE FALL IN SPONTANEOUS HYPERTENSIVE RATS (MHS), SBP” value was 153 +/- 5.1 mm Hg and the HR is on record as 378 +/- 8.5 beats/min. In addition, the IC50 in experiment [2] (setting [5]) was 1580 nM. Moreover, the IC50 in experiment [3] (setting [4]) was 200 nM.

`C[C@]12CC[C@H](O)C[C@H]1CC[C@@H]1[C@@H]2CC[C@]2(C)[C@@H](c3ccoc3)CC[C@]12O` [Ref. comp., 17β-(3-furyl)-5β-androstane-3β, 14β-diol, reference compound]: in experiment [1], the “SYSTOLIC BLOOD PRESSURE FALL IN SPONTANEOUS HYPERTENSIVE RATS (MHS), SBP” value was 173 +/- 4.0 mm Hg and the HR is given as 380 +/- 10.0 beats/min. In experiment [2], this compound showed a 50% inhibitory concentration (IC50) of 2000 nM. In addition, the IC50 in experiment [3] was 501 nM.

For the compound `C[C@]12CC[C@H](OCCN3CCCC3)C[C@@H]1CC[C@@H]1[C@@H]2CC[C@@]2(C)[C@H]1CC[C@@]2(OCCN1CCCC1)c1ccoc1` [Comp. I-ak, 3β, 17β-Bis(2-(1-pyrrolidinyl)ethoxy)-17α-(3-furyl)-androstane], the figures for the IC50 in experiment [2] and in experiment [3] (setting [4]) were 5010 nM and 398 nM, respectively.

In the case of `C[C@]12CC[C@H](SCCOCCN3CCCC3)C[C@@H]1CC[C@@H]1[C@@H]2CC[C@@]2(C)[C@H]1CC[C@@]2(OCCN1CCCC1)c1ccoc1` [Comp. I-ca, 3β-(2-(2-(1-Pyrrolidinyl)ethoxy)ethylthio)-17β-(2-(1-pyrrolidinyl)ethoxy)-17α-(3-furyl)-androstane], the IC50 in experiment [2] (setting [5]) is 2000 nM; in experiment [3] (setting [4]), 316 nM.

As for `C[C@]12CC[C@H](OCCOCCN3CCCC3)C[C@@H]1CC[C@@H]1[C@@H]2CC[C@@]2(C)[C@H]1CC[C@@]2(OCCN1CCCC1)c1ccoc1` [Comp. I-an, 3β-(2-(2-(1-Pyrrolidinyl)ethoxy)ethoxy)-17β-(2-(1-pyrrolidinyl)ethoxy)-17α-(3-furyl)-androstane], in experiment [1], the “SYSTOLIC BLOOD PRESSURE FALL IN SPONTANEOUS HYPERTENSIVE RATS (MHS), SBP” value is 152 +/- 5.0 mm Hg and the HR is given as 375 +/- 9.0 beats/min.

As a reminder, the IC50 is the concentration at which inhibition is half-maximal.
